Source: patent publication US12030903B2, “Antiviral compounds” (Gilead Sciences, Inc., priority 2020, dated 2024)

Tests used:
[1] = system: Dengue serotype 2 New Guinea C (NGC) strain; experiment: DENV-2 Huh-7 EC50 (qPCR of viral RNA in infected Huh7 cells); type: cell-based; conditions: Dengue virus, DENV2, Huh-7, Huh7 cells infected with Dengue serotype 2 NGC, MOI=0.1, 48 hours
Description: Huh7 (Human hepatocarcinoma 7) cells were maintained in 10% FCS-containing DMEM complete media. On the day of the assay, cells were trypsinized (0.1% Trypsin-EDTA), washed and infected for 2 hours in serum-free DMEM with Dengue serotype 2 New Guinea C (NGC) strain at MOI=0.1 with gentle agitation at 37° C. After 2 hours, cells were washed with serum-free media and suspended in 10% FCS-containing DMEM (Gibco, supplemented with sodium pyruvate, NEAA, Penicillin-Streptomycin). 10^5 cells were plated in triplicate in 96-well plates with compounds dispensed at graded doses (Hewlett-Packard D300 Digital Dispenser). All wells were normalized to 0.25% DMSO. At 48 hours, cells were washed with 1× PBS and all supernatants removed. Total RNA was extracted using RNEasy 96 plates (Qiagen) and used to generate first-strand cDNA using XLT cDNA 5× Supermix (QuantaBio). cDNA was used as a template in a Taqman qPCR duplex reaction specific to DENV2 viral and GAPDH gene expression. EC50 values were determined using Prism Graphpad software, with normalization to a positive control and no compound negative control wells.

[2] = Huh-7 CC50 (CellTiter Glo viability); type: cell-based, Human; conditions: human, Huh7 hepatocarcinoma cells
Description: Human hepatocarcinoma 7 (Huh7) cells were maintained in 10% FCS-containing complete DMEM. On day of assay, cells were trypsinized with 0.1% Trypsin-EDTA, washed and cultured in triplicate at 1-2×10^4 cells/well in 96-well plates with compounds dispensed at graded doses (Hewlett-Packard D300 Digital Dispenser). All wells were normalized to 0.25% DMSO. After 48 hours, CellTiter Glo (Promega) was added and incubated for 10 minutes at room temp before reading on a luminometer. % viability curves were calculated against no compound and no cell control wells. CC50 values were determined using Prism Graphpad software.

[3] = system: RSV strain A2; experiment: RSV HEp-2 EC50 (infectious cytopathic cell protection assay); type: cell-based, RSV strain A2; HEp-2 cells; conditions: human respiratory syncytial virus, HEp-2, 96 h, read-out: RSV Hep-2 EC50
Description: Example 86. RSV HEp-2 EC50
Antiviral activity against RSV is determined using an infectious cytopathic cell protection assay in HEp-2 cells. In this assay, compounds inhibiting viral infection and/or replication produce a cytoprotective effect against the virus-induced cell killing that can be quantified using a cell viability reagent. The techniques used here are novel adaptations of methods described in published literature (Chapman et al., Antimicrob Agents Chemother. 2007, 51(9):3346-53.)
HEp-2 cells are obtained from ATCC (Manassas, VI) and maintained in MEM media supplemented with 10% fetal bovine serum and penicillin/streptomycin. Cells are passaged twice a week and kept at subconfluent stage. Commercial stock of RSV strain A2 (Advanced Biotechnologies, Columbia, MD) is titered before compound testing to determine the appropriate dilution of the virus stock that generates desirable cytopathic effect in HEp-2 cells.
For antiviral tests, HEp-2 cells are grown in large cell culture flasks to near confluency but not fully so. The compounds to be tested are prediluted in DMSO in 384-well compound dilution plates, either in an 8 or 40 sample per plate standardized dose response format. 3-fold serial dilution increments of each test compound are prepared in the plates and test samples are transferred via acoustic transfer apparatus (Echo, Labcyte) at 100 nL per well into cell culture assay 384-well plates. Each compound dilution is transferred in single or quadruplicate samples into dry assay plates, which are stored until assay is ready to go. The positive and negative controls are laid out in opposite on ends of the plate in vertical blocks (1 column).
Subsequently, an infectious mixture is prepared using an appropriate dilution of virus stock previously determined by titration with cells at a density of 50,000/mL and 20 uL/well is added to test plates w/compounds via automation (uFlow, Biotek). Each plate includes negative and positive controls (16 replicates each) to create 0% and 100% virus inhibition standards, respectively. Following the infection with RSV, testing plates are incubated for 4 days in a 37° C. cell culture incubator. After the incubation, a cell viability reagent, Cell TiterGlo (Promega, Madison, WI) is added to the assay plates, which are incubated briefly, and a luminescent readout is measured (Envision, Perkin Elmer) in all the assay plates. The RSV-induced cytopathic effect, percentage inhibition, is determined from the levels of remaining cell viability. […] Various potent anti-RSV tool compounds are used as positive controls for antiviral activity.

[4] = HEp-2 CC50 (cytotoxicity in uninfected HEp-2 cells); type: cell-based; conditions: human, CellTiter Glo
Description: Instead, an uninfected cell mixture at the same density is added at 20 uL/well to plates containing prediluted compounds, also at 100 nL/sample. Assay plates are then incubated for 4 days followed by a cell viability test using the same CellTiter Glo reagent addition and measurement of luminescent readouts. Untreated cell and cells treated at 2 μM puromycin (Sigma, St. Louis, MO) serve as 100% and 0% cell viability control, respectively.

SMILES | EC50 [1] [µM] | CC50 at 48 h [2] [µM] | EC50 [3] [µM] | CC50 at 4 days [4] [µM]
CCOC(=O)[C@H](C)NP(=O)(OC[C@@]1(CF)O[C@@H](c2ccc3c(N)ncnn23)[C@H](O)[C@@H]1O)Oc1ccc(C(C)(C)C)cc1 (mixture of isomers) [Example 47, ethyl ((((2R,3S,4R,5S)-5-(4-aminopyrrolo[2,1-f][1,2,4]triazin-7-yl)-2-(fluoromethyl)-3,4-dihydroxytetrahydrofuran-2-yl)methoxy)(4-(tert-butyl)phenoxy)phosphoryl)-L-alaninate] | 0.65 | 21.4 | 0.389 | 65.9
CCC(=O)O[C@H]1[C@H](c2ccc3c(N)ncnn23)O[C@](CF)(CO[P@@](=O)(N[C@@H](C)C(=O)OCC(CC)CC)Oc2ccccc2)[C@H]1OC(=O)CC (single isomer, unassigned) [Example 61] | 0.568 | 15 | 0.855 | 19.1
CCC(CC)COC(=O)[C@H](C)N[P@](=O)(OC[C@@]1(CF)O[C@@H](c2ccc3c(N)ncnn23)[C@H](OC(=O)C(C)C)[C@@H]1OC(=O)C(C)C)Oc1ccccc1 (single isomer, unassigned) [Example 62] | 0.662 | 8.09 | 10.1 | –
CC(C)C(=O)O[C@H]1[C@H](c2ccc3c(N)ncnn23)O[C@](CF)(CO[P@@](=O)(N[C@@H](C)C(=O)OC2COC2)Oc2ccccc2)[C@H]1OC(=O)C(C)C (single isomer, unassigned) [Example 73] | 0.302 | 9.34 | – | –
CCC(CC)COC(=O)[C@H](C)NP(=O)(OC[C@@]1(CCl)O[C@@H](c2ccc3c(N)ncnn23)[C@H](O)[C@@H]1O)Oc1ccccc1 (stereo partly drawn) [Comp. Ex. 1, 2-ethylbutyl ((((2R,3S,4R,5S)-5-(4-aminopyrrolo[2,1-f][1,2,4]triazin-7-yl)-2-(chloromethyl)-3,4-dihydroxytetrahydrofuran-2-yl)methoxy)(phenoxy)phosphoryl)-L-alaninate, reference compound] | 2.33 | – | – | –
CCCCCCOC(=O)[C@H](C)NP(=O)(OC[C@@]1(CF)O[C@@H](c2ccc3c(N)ncnn23)[C@H](O)[C@@H]1O)Oc1ccccc1 (stereo partly drawn) [Example 17, hexyl ((((2R,3S,4R,5S)-5-(4-aminopyrrolo[2,1-f][1,2,4]triazin-7-yl)-2-(fluoromethyl)-3,4-dihydroxytetrahydrofuran-2-yl)methoxy)(phenoxy)phosphoryl)-L-alaninate] | 0.51 | > 25 | 0.516 | > 100
CC(=O)O[C@H]1[C@H](c2ccc3c(N)ncnn23)O[C@](CF)(CO[P@@](=O)(N[C@@H](C)C(=O)OC(C)C)Oc2ccccc2)[C@H]1OC(C)=O [Example 20, (2R,3S,4S,5S)-5-(4-aminopyrrolo[2,1-f][1,2,4]triazin-7-yl)-2-(fluoromethyl)-2-((((S)-(((S)-1-isopropoxy-1-oxopropan-2-yl)amino)(phenoxy)phosphoryl)oxy)methyl) tetrahydrofuran-3,4-diyl diacetate] | 2.57 | > 25 | 3.18 | > 100
C[C@H](NP(=O)(OC[C@@]1(CF)O[C@@H](c2ccc3c(N)ncnn23)[C@H](O)[C@@H]1O)Oc1ccccc1)C(=O)OCC(C)(C)O (stereo partly drawn) [Example 26, 2-hydroxy-2-methylpropyl ((((2R,3S,4R,5S)-5-(4-aminopyrrolo[2,1-f][1,2,4]triazin-7-yl)-2-(fluoromethyl)-3,4-dihydroxytetrahydrofuran-2-yl)methoxy)(phenoxy)phosphoryl)-L-alaninate] | > 24 | > 25 | 39.3 | > 100
CO[C@@H](C)COC(=O)[C@H](C)NP(=O)(OC[C@@]1(CF)O[C@@H](c2ccc3c(N)ncnn23)[C@H](O)[C@@H]1O)Oc1ccccc1 (stereo partly drawn) [Example 30, (S)-2-methoxypropyl ((((2R,3S,4R,5S)-5-(4-aminopyrrolo[2,1-f][1,2,4]triazin-7-yl)-2-(fluoromethyl)-3,4-dihydroxytetrahydrofuran-2-yl)methoxy)(phenoxy)phosphoryl)-L-alaninate] | – | – | 4.13 | > 100
C[C@H](NP(=O)(OC[C@@]1(CF)O[C@@H](c2ccc3c(N)ncnn23)[C@H](O)[C@@H]1O)Oc1ccccc1)C(=O)O[C@@H]1CCN(C)C1 (stereo partly drawn) [Example 35, (R)-1-methylpyrrolidin-3-yl ((((2R,3S,4R,5S)-5-(4-aminopyrrolo[2,1-f][1,2,4]triazin-7-yl)-2-(fluoromethyl)-3,4-dihydroxytetrahydrofuran-2-yl)methoxy) (phenoxy)phosphoryl)-L-alaninate] | > 25 | > 25 | 42.8 | > 100
CO[C@H](C)COC(=O)[C@H](C)NP(=O)(OC[C@@]1(CF)O[C@@H](c2ccc3c(N)ncnn23)[C@H](O)[C@@H]1O)Oc1ccccc1 (stereo partly drawn) [Example 39, (R)-2-methoxypropyl ((((2R,3S,4R,5S)-5-(4-aminopyrrolo[2,1-f][1,2,4]triazin-7-yl)-2-(fluoromethyl)-3,4-dihydroxytetrahydrofuran-2-yl)methoxy)(phenoxy)phosphoryl)-L-alaninate] | – | – | 2.47 | > 100
CCOC(=O)[C@H](C)NP(=O)(OC[C@@]1(CF)O[C@@H](c2ccc3c(N)ncnn23)[C@H](O)[C@@H]1O)Oc1cccc2ccccc12 (stereo partly drawn) [Example 44, ethyl ((((2R,3S,4R,5S)-5-(4-aminopyrrolo[2,1-f][1,2,4]triazin-7-yl)-2-(fluoromethyl)-3,4-dihydroxytetrahydrofuran-2-yl)methoxy)(naphthalen-1-yloxy)phosphoryl)-L-alaninate] | 0.191 | 17.1 | 0.148 | 26.5
C[C@H](NP(=O)(OC[C@@]1(CF)O[C@@H](c2ccc3c(N)ncnn23)[C@H](O)[C@@H]1O)Oc1ccccc1)C(=O)OC1CCOCC1 (stereo partly drawn) [Example 64, tetrahydro-2H-pyran-4-yl ((((2R,3S,4R,5S)-5-(4-aminopyrrolo[2,1-f][1,2,4]triazin-7-yl)-2-(fluoromethyl)-3,4-dihydroxytetrahydrofuran-2-yl)methoxy)(phenoxy)phosphoryl)-L-alaninate] | 2 | > 25 | – | –
CCC(CC)COC(=O)[C@H](C)N[P@](=O)(OC[C@@]1(CF)O[C@@H](c2ccc3c(NC(=O)c4ccccc4)ncnn23)[C@H](O)[C@@H]1O)Oc1ccccc1 [Example 75, 2-ethylbutyl ((S)-(((2R,3S,4R,5S)-5-(4-benzamidopyrrolo[2,1-f][1,2,4]triazin-7-yl)-2-(fluoromethyl)-3,4-dihydroxytetrahydrofuran-2-yl)methoxy)(phenoxy)phosphoryl)-L-alaninate] | 0.175 | – | – | –
